Measurements as given in the supplement of paper PMC4862054.

system: CAL-51; experiment: normalised response (% of control), CellTox Green; higher = less cell death (100 = DMSO, 0 = benzethonium chloride kill control); conditions: incubation time: 72 h
Method in brief: (§1)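 Normalised signals at single concentrations make up the values. They come from breast cancer cell lines seeded (20 µl suspension) into 384-well plates with compound at 5 concentrations in 10-fold steps over a compound-specific 10,000-fold range, incubated 72 h, and read for CellTox Green fluorescence then CellTiter-Glo luminescence. Each plate was normalised to 0.1 % DMSO (100) and a positive kill control (0).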

Structure (SMILES)	normalised response
CC(C)(C)c1cc(NC(=O)Nc2ccc(-c3cn4c(n3)sc3cc(OCCN5CCOCC5)ccc34)cc2)no1 [Quizartinib] (1000 nM)	111%
COc1cccc2c1C(=O)c1c(O)c3c(c(O)c1C2=O)C[C@@](O)(C(C)=O)C[C@@H]3O[C@H]1C[C@H](N)[C@H](O)[C@H](C)O1 [Daunorubicin] (100 nM)	73.5%
O=c1[nH]cc(F)c(=O)[nH]1 [Fluorouracil] (10000 nM)	120%
O=C(c1ccc(OCCN2CCCCC2)cc1)c1c(-c2ccc(O)cc2)sc2cc(O)ccc12 [Raloxifene] (10000 nM)	108%
CC(C)(C)c1cc(NC(=O)Nc2ccc(-c3cn4c(n3)sc3cc(OCCN5CCOCC5)ccc34)cc2)no1 [Quizartinib] (100 nM)	117%
CCS(=O)(=O)c1cccc(-c2cc(C(=O)NC3CCN(C)CC3)c(C)c3[nH]c4ncc(C)cc4c23)c1 [TAK-901] (100 nM)	53.8%
CS(=O)(=O)OCCCCOS(C)(=O)=O [Busulfan] (100000 nM)	106%
O=c1[nH]c(=O)n([C@H]2C[C@H](O)[C@@H](CO)O2)cc1F [Floxuridine] (10000 nM)	53.1%
Cn1cnc2c(F)c(Nc3ccc(Br)cc3F)c(C(=O)NOCCO)cc21 [MEK-162] (1000 nM)	89.1%
O=C(c1ccc(OCCN2CCCCC2)cc1)c1c(-c2ccc(O)cc2)sc2cc(O)ccc12 [Raloxifene] (1000 nM)	121%
O=c1[nH]c(=O)n([C@H]2C[C@H](O)[C@@H](CO)O2)cc1F [Floxuridine] (1000 nM)	71%
CCCC(CCC)C(=O)O [Valproic acid] (10000 nM)	95.7%
CS(=O)(=O)CCNCc1ccc(-c2ccc3ncnc(Nc4ccc(OCc5cccc(F)c5)c(Cl)c4)c3c2)o1 [Lapatinib] (1000 nM)	106%
COC1=CC(c2cc3ccccc3[nH]2)=N/C1=C\c1[nH]c(C)cc1C [Obatoclax] (1000 nM)	100%

system: MDA-MB-453; experiment: as above; conditions: incubation time: 72 h
Method in brief: as §1

Structure (SMILES)	normalised response
COc1cccc2c1C(=O)c1c(O)c3c(c(O)c1C2=O)C[C@@](O)(C(C)=O)C[C@@H]3O[C@H]1C[C@H](N)[C@H](O)[C@H](C)O1 [Daunorubicin] (1000 nM)	120%
Cn1c(=O)c(F)c(Nc2ccc(I)cc2F)c2c(=O)n(C[C@@H](O)CO)cnc21 [TAK-733] (100 nM)	112%
C[C@@H]1C=C2C(=O)O[C@@H]3CC[C@H](C1)[C@]23O [Galiellalactone] (50000 nM)	107%
C[C@@H]1C=C2C(=O)O[C@@H]3CC[C@H](C1)[C@]23O [Galiellalactone] (5000 nM)	103%
COc1ccc(C2=N[C@@H](c3ccc(Cl)cc3)[C@@H](c3ccc(Cl)cc3)N2C(=O)N2CCNC(=O)C2)c(OC(C)C)c1 [Nutlin-3] (1000 nM)	109%
COC1=CC(c2cc3ccccc3[nH]2)=N/C1=C\c1[nH]c(C)cc1C [Obatoclax] (10000 nM)	96.2%
CN1CCN(c2ccc3nc(-c4c(N)c5c(F)cccc5[nH]c4=O)[nH]c3c2)CC1 [Dovitinib] (10000 nM)	103%
COc1ccc(C2=N[C@@H](c3ccc(Cl)cc3)[C@@H](c3ccc(Cl)cc3)N2C(=O)N2CCNC(=O)C2)c(OC(C)C)c1 [Nutlin-3] (10000 nM)	92.3%
COC1=C2C[C@@H](C)C[C@H](OC)[C@H](O)[C@@H](C)/C=C(\C)[C@H](OC(N)=O)[C@@H](OC)/C=C\C=C(/C)C(=O)NC(=CC1=O)C2=O [Geldanamycin] (1000 nM)	104%
CC(C)(C)c1cc(NC(=O)Nc2ccc(-c3cn4c(n3)sc3cc(OCCN5CCOCC5)ccc34)cc2)no1 [Quizartinib] (1000 nM)	112%
COc1cccc2c1C(=O)c1c(O)c3c(c(O)c1C2=O)C[C@@](O)(C(C)=O)C[C@@H]3O[C@H]1C[C@H](N)[C@H](O)[C@H](C)O1 [Daunorubicin] (100 nM)	110%
O=c1[nH]cc(F)c(=O)[nH]1 [Fluorouracil] (10000 nM)	100%
O=C(c1ccc(OCCN2CCCCC2)cc1)c1c(-c2ccc(O)cc2)sc2cc(O)ccc12 [Raloxifene] (10000 nM)	99.2%
CC(C)(C)c1cc(NC(=O)Nc2ccc(-c3cn4c(n3)sc3cc(OCCN5CCOCC5)ccc34)cc2)no1 [Quizartinib] (100 nM)	101%
CCS(=O)(=O)c1cccc(-c2cc(C(=O)NC3CCN(C)CC3)c(C)c3[nH]c4ncc(C)cc4c23)c1 [TAK-901] (100 nM)	107%
CS(=O)(=O)OCCCCOS(C)(=O)=O [Busulfan] (100000 nM)	97.6%
O=c1[nH]c(=O)n([C@H]2C[C@H](O)[C@@H](CO)O2)cc1F [Floxuridine] (10000 nM)	103%
Cn1cnc2c(F)c(Nc3ccc(Br)cc3F)c(C(=O)NOCCO)cc21 [MEK-162] (1000 nM)	95.4%
O=C(c1ccc(OCCN2CCCCC2)cc1)c1c(-c2ccc(O)cc2)sc2cc(O)ccc12 [Raloxifene] (1000 nM)	103%
O=c1[nH]c(=O)n([C@H]2C[C@H](O)[C@@H](CO)O2)cc1F [Floxuridine] (1000 nM)	110%
CCCC(CCC)C(=O)O [Valproic acid] (10000 nM)	107%
CS(=O)(=O)CCNCc1ccc(-c2ccc3ncnc(Nc4ccc(OCc5cccc(F)c5)c(Cl)c4)c3c2)o1 [Lapatinib] (1000 nM)	82.5%
COC1=CC(c2cc3ccccc3[nH]2)=N/C1=C\c1[nH]c(C)cc1C [Obatoclax] (1000 nM)	105%

system: HDQ-P1; experiment: as above; conditions: incubation time: 72 h
Method in brief: as §1

Structure (SMILES)	normalised response
COc1cccc2c1C(=O)c1c(O)c3c(c(O)c1C2=O)C[C@@](O)(C(C)=O)C[C@@H]3O[C@H]1C[C@H](N)[C@H](O)[C@H](C)O1 [Daunorubicin] (1000 nM)	101%
Cn1c(=O)c(F)c(Nc2ccc(I)cc2F)c2c(=O)n(C[C@@H](O)CO)cnc21 [TAK-733] (100 nM)	97.3%
C[C@@H]1C=C2C(=O)O[C@@H]3CC[C@H](C1)[C@]23O [Galiellalactone] (50000 nM)	92.3%
C[C@@H]1C=C2C(=O)O[C@@H]3CC[C@H](C1)[C@]23O [Galiellalactone] (5000 nM)	98.5%
COc1ccc(C2=N[C@@H](c3ccc(Cl)cc3)[C@@H](c3ccc(Cl)cc3)N2C(=O)N2CCNC(=O)C2)c(OC(C)C)c1 [Nutlin-3] (1000 nM)	112%
COC1=CC(c2cc3ccccc3[nH]2)=N/C1=C\c1[nH]c(C)cc1C [Obatoclax] (10000 nM)	102%
CN1CCN(c2ccc3nc(-c4c(N)c5c(F)cccc5[nH]c4=O)[nH]c3c2)CC1 [Dovitinib] (10000 nM)	108%
COc1ccc(C2=N[C@@H](c3ccc(Cl)cc3)[C@@H](c3ccc(Cl)cc3)N2C(=O)N2CCNC(=O)C2)c(OC(C)C)c1 [Nutlin-3] (10000 nM)	103%
COC1=C2C[C@@H](C)C[C@H](OC)[C@H](O)[C@@H](C)/C=C(\C)[C@H](OC(N)=O)[C@@H](OC)/C=C\C=C(/C)C(=O)NC(=CC1=O)C2=O [Geldanamycin] (1000 nM)	102%
CC(C)(C)c1cc(NC(=O)Nc2ccc(-c3cn4c(n3)sc3cc(OCCN5CCOCC5)ccc34)cc2)no1 [Quizartinib] (1000 nM)	90.1%
O=C(c1ccc(OCCN2CCCCC2)cc1)c1c(-c2ccc(O)cc2)sc2cc(O)ccc12 [Raloxifene] (10000 nM)	50.4%
